{
  "source": "patent US6197811A",
  "about": "“Cytokine production inhibitors” (Terragen Discovery Inc., priority 1998, dated 2001)",
  "tested_on": "IL-1β production in human peripheral blood mononuclear cells (PBMC)",
  "test": "LPS-induced IL-1β release from human peripheral blood mononuclear cells (PBMC), ELISA",
  "assay_type": "cell-based",
  "settings": "1 ng/ml LPS, 18 hours at 37° C., IL-1β by ELISA",
  "description": "IL-1 Release from Human Peripheral Blood Mononuclear Cells (PBMC)\nHuman peripheral blood mononuclear cells (PBMC) were separated from Buffy coats obtained from normal healthy donors on Lymphoprep. […] Cells were incubated for 18 hours at 37° C. with 5% CO2 and the cell culture supernatants harvested and stored at -70° C. Effects on the production of IL-1β were determined by using an ELISA.",
  "data": [
    {"smiles": "C/C=C/[C@@H]1OC(=O)C=C[C@H]1OC(=O)c1ccccc1", "note": "[Example 1, ((2S,3R)-3,6-Dihydro-6-oxo-(2E-prop-1-enyl-2H-pyran-3-yl)) benzoate]", "values": [
      {"measurement": "IC50", "value": 2.4, "unit": "µM"}
    ]},
    {"smiles": "C/C=C/[C@@H]1OC(=O)C=C[C@H]1OC(=O)c1ccc(-c2ccccc2)cc1", "note": "[Example 1a, ((2S,3R)-3,6-Dihydro-6-oxo-(2E-prop-1-enyl-2H-pyran-3-yl))-4-biphenyl carboxylate]", "values": [
      {"measurement": "IC50", "value": "> 7.5", "unit": "µM"}
    ]},
    {"smiles": "C/C=C/[C@@H]1OC(=O)C=C[C@H]1OC(=O)c1ccc2c(c1)C(=O)c1ccccc1-2", "note": "[Example 1b, ((2S,3R)-3,6-Dihydro-6-oxo-(2E-prop-1-enyl-2H-pyran-3-yl))-9-oxo-9H-fluorene carboxylate]", "values": [
      {"measurement": "IC50", "value": 4.5, "unit": "µM"}
    ]},
    {"smiles": "C/C=C/[C@@H]1OC(=O)C=C[C@H]1OC(=O)c1cccc2c1C(=O)c1ccccc1-2", "note": "[Example 1c]", "values": [
      {"measurement": "IC50", "value": 4, "unit": "µM"}
    ]},
    {"smiles": "C/C=C/[C@H]1OC(=O)C=C[C@@H]1NCc1ccccc1", "note": "[Example 2a, (5S,6R)-5-benzylamino-6E-prop-1-ene-5,6-dihydro-2H-pyran-2-one]", "values": [
      {"measurement": "IC50", "value": 12, "unit": "µM"}
    ]},
    {"smiles": "C/C=C/[C@H]1OC(=O)C=C[C@@H]1NCc1ccc(-c2ccccc2)cc1", "note": "[Example 2b, (5S,6R)-5-(4-biphenylmethylamino)-6E-prop-1-ene-5,6-dihydro-2H-pyran-2-one]", "values": [
      {"measurement": "IC50", "value": 6.9, "unit": "µM"}
    ]},
    {"smiles": "C/C=C/[C@H]1OC(=O)C=C[C@@H]1NCC1c2ccccc2-c2ccccc21", "note": "[Example 2c, (5S,6R)-5-(2-9H-fluorenemethylamino)-6E-prop-1-ene-5,6-dihydro-2H-pyran-2-one]", "values": [
      {"measurement": "IC50", "value": 3.6, "unit": "µM"}
    ]},
    {"smiles": "C/C=C/[C@@H]1OC(=O)C=C[C@H]1NC(=O)c1ccccc1", "note": "[Example 3, ((2S,3R)-3,6-Dihydro-6-oxo-(2E-prop-1-enyl-2H-pyran-3-yl)) phenylamide]", "values": [
      {"measurement": "IC50", "value": 9.7, "unit": "µM"}
    ]},
    {"smiles": "C/C=C/[C@@H]1OC(=O)C=C[C@H]1NC(=O)c1ccc(-c2ccccc2)cc1", "note": "[Example 3a, ((2S,3R) -3,6-Dihydro-6-oxo-(2E-prop-1-enyl-2H-pyran-3-yl) )4-biphenylamide]", "values": [
      {"measurement": "IC50", "value": 1, "unit": "µM"}
    ]},
    {"smiles": "C/C=C/[C@@H]1OC(=O)C=C[C@H]1NC(=O)c1cccc2c1-c1ccccc1C2=O", "note": "[Example 3b, ((2S,3R)-3,6-Dihydro-6-oxo-(2E-prop-1-enyl-2H-pyran-3-yl))-9-oxo-9H-fluorene-4-amide]", "values": [
      {"measurement": "IC50", "value": 10, "unit": "µM"}
    ]},
    {"smiles": "C/C=C/[C@@H]1OC(=O)C=C[C@H]1NC(=O)c1ccc(-c2ccccc2)cc1", "note": "[Example 3c, ((2S,3R)-3,6-Dihydro-6-oxo-(2E-prop-1-enyl-2H-pyran-3-yl))-4-biphenylamide]", "values": [
      {"measurement": "IC50", "value": 1.3, "unit": "µM"}
    ]},
    {"smiles": "C/C=C/[C@@H]1OC(=O)C=C[C@H]1NC(=O)c1cccc2c1-c1ccccc1C2=O", "note": "[Example 3d, ((2S,3R)-3,6-Dihydro-6-oxo-(2E-prop-1-enyl-2H-pyran-3-yl))-9-oxo-9H-fluorene-4-amide]", "values": [
      {"measurement": "IC50", "value": 11.3, "unit": "µM"}
    ]},
    {"smiles": "C/C=C/[C@@H]1OC(=O)C=C[C@H]1OC(=O)/C=C/C(C)=C/[C@@H](C)CCCCCC", "note": "[Example 4, ((2S,3R)-3,6-Dihydro-6-oxo-(2E-prop-1-enyl-2H-pyran-3-yl))-(2E,4E)-4,6-dimethyldodecanoate]", "values": [
      {"measurement": "IC50", "value": 4, "unit": "µM"}
    ]},
    {"smiles": "C/C=C/[C@@H]1OC(=O)C=C[C@@H]1OCOCCOC", "note": "[Example 4a, (2S,3S)-5-(2-Methoxy-ethoxymethoxy)-6-(2E-prop-1-enyl)-5,6-dihydro-2H-pyran-2-one]", "values": [
      {"measurement": "IC50", "value": 8.5, "unit": "µM"}
    ]},
    {"smiles": "C/C=C/[C@@H]1OC(=O)C=C[C@@H]1OCc1ccc(-c2ccccc2)cc1", "note": "[Example 4b, (2S,3S)-5-(4-Biphenylmethoxy)-6-(2E-prop-1-enyl)-5,6-dihydro-2H-pyran-2-one]", "values": [
      {"measurement": "IC50", "value": 0.4, "unit": "µM"}
    ]},
    {"smiles": "C/C=C/[C@@H]1OC(=O)C=C[C@@H]1OCc1ccccc1", "note": "[Example 4c, (2S,3S)-5-Benzyloxy-6-(2E-prop-1-enyl)-5,6-dihydro-2H-pyran-2-one]", "values": [
      {"measurement": "IC50", "value": 1.2, "unit": "µM"}
    ]},
    {"smiles": "C/C=C/[C@@H]1OC(=O)C=C[C@@H]1OC(=O)/C=C/CCCCCCCCC", "note": "[Example 5, ((2S,3S)-3,6-Dihydro-6-oxo-(2E-prop-1-enyl-2H-pyran-3-yl))dodeca-2E-enoate]", "values": [
      {"measurement": "IC50", "value": 2.8, "unit": "µM"}
    ]},
    {"smiles": "C/C=C/[C@@H]1OC(=O)C=C[C@@H]1OC(=O)/C=C/c1ccco1", "note": "[Example 5a, ((2S,3S)-3,6-dihydro-6-oxo-(2E-prop-1-enyl-2H-yran-3-yl))-3-(2-furfuryl)acrylate]", "values": [
      {"measurement": "IC50", "value": 1.2, "unit": "µM"}
    ]},
    {"smiles": "C/C=C/[C@@H]1OC(=O)C=C[C@@H]1OC(=O)c1ccc(-c2ccccc2)cc1", "note": "[Example 5b, ((2S,3S)-3,6-Dihydro-6-oxo-(2E-prop-1-enyl-2H-pyran-3-yl))-4-biphenylcarboxylate]", "values": [
      {"measurement": "IC50", "value": 0.3, "unit": "µM"}
    ]},
    {"smiles": "C/C=C/[C@@H]1OC(=O)C=C[C@@H]1OC(=O)c1ccc(-c2ccc(CC)cc2)cc1", "note": "[Example 5c, ((2S,3S)-3,6-Dihydro-6-oxo-(2E-prop-1-enyl-2H-pyran-3-yl))-4'-ethyl-4-biphenylcarboxylate]", "values": [
      {"measurement": "IC50", "value": 0.1, "unit": "µM"}
    ]},
    {"smiles": "C/C=C/[C@@H]1OC(=O)C=C[C@@H]1OC(=O)c1cccc2c1Cc1ccccc1-2", "note": "[Example 5d, ((2S,3S)-3,6-Dihydro-6-oxo-(2E-prop-1-enyl-2H-pyran-3-yl))-9H-fluorenecarboxylate]", "values": [
      {"measurement": "IC50", "value": 0.3, "unit": "µM"}
    ]},
    {"smiles": "C/C=C/[C@@H]1OC(=O)C=C[C@@H]1OC(=O)c1cccc2c1C(=O)c1ccccc1-2", "note": "[Example 5e, ((2S,3S)-3,6-Dihydro-6-oxo-(2E-prop-1-enyl-2H-pyran-3-yl))-9-oxo-9H-fluorene carboxylate]", "values": [
      {"measurement": "IC50", "value": 0.13, "unit": "µM"}
    ]},
    {"smiles": "C/C=C/[C@@H]1OC(=O)C=C[C@@H]1OC(=O)c1ccc2c(c1)C(=O)c1ccccc1-2", "note": "[Example 5f, ((2S,3S)-3,6-Dihydro-6-oxo-(2E-prop-1-enyl-2H-pyran-3-yl))-9-oxo-9H-fluorene-2-carboxylate]", "values": [
      {"measurement": "IC50", "value": 1.2, "unit": "µM"}
    ]},
    {"smiles": "C/C=C/[C@@H]1OC(=O)C=C[C@@H]1OC(=O)Cc1ccc(-c2ccccc2)cc1", "note": "[Example 5g, ((2S,3S)-3,6-Dihydro-6-oxo-(2E-prop-1-enyl-2H-pyran-3-yl))-4-biphenylacetate]", "values": [
      {"measurement": "IC50", "value": 13.4, "unit": "µM"}
    ]},
    {"smiles": "C/C=C/[C@@H]1OC(=O)C=C[C@@H]1OC(=O)Cc1ccccc1", "note": "[Example 5h, ((2S,3S)-3,6-Dihydro-6-oxo-(2E-prop-1-enyl-2H-pyran-3-yl))phenylacetate]", "values": [
      {"measurement": "IC50", "value": 1.4, "unit": "µM"}
    ]},
    {"smiles": "C/C=C/[C@@H]1OC(=O)C=C[C@@H]1OC(=O)/C=C/c1cccc(C)c1", "note": "[Example 5i, ((2S,3S)-3,6-Dihydro-6-oxo-(2E-prop-1-enyl-2H-pyran-3-yl))-3m-tolylacrylate]", "values": [
      {"measurement": "IC50", "value": 1, "unit": "µM"}
    ]},
    {"smiles": "C/C=C/[C@@H]1OC(=O)C=C[C@@H]1OC(=O)/C=C/c1ccc2ccccc2c1", "note": "[Example 5j, ((2S,3S)-3,6-Dihydro-6-oxo-(2E-prop-1-enyl-2H-pyran-3-yl))-3-(2-naphthyl)acrylate]", "values": [
      {"measurement": "IC50", "value": 0.7, "unit": "µM"}
    ]},
    {"smiles": "C/C=C/[C@@H]1OC(=O)C=C[C@@H]1OC(=O)c1ccc(CCCCC)cc1", "note": "[Example 5k, ((2S,3S)-3,6-Dihydro-6-oxo-(2E-prop-1-enyl-2H-pyran-3-yl))-4-pentylbenzoate]", "values": [
      {"measurement": "IC50", "value": 0.4, "unit": "µM"}
    ]},
    {"smiles": "C/C=C/[C@@H]1OC(=O)C=C[C@@H]1OC(=O)CCCCCCCCCCC", "note": "[Example 5l, ((2S,3S)-3,6-Dihydro-6-oxo-(2E-prop-1-enyl-2H-pyran-3-yl))dodecanoate]", "values": [
      {"measurement": "IC50", "value": 8.4, "unit": "µM"}
    ]},
    {"smiles": "C/C=C/[C@@H]1OC(=O)C=C[C@@H]1OC(=O)CCCCCCCCCCCCC", "note": "[Example 5m, ((2S,3S)-3,6-Dihydro-6-oxo-(2E-prop-1-enyl-2H-20 pyran-3-yl))tetradodecanoate]", "values": [
      {"measurement": "IC50", "value": 5.4, "unit": "µM"}
    ]},
    {"smiles": "CCCCCC[C@H](C)/C=C(C)/C=C/C(=O)O[C@H]1C=CC(=O)O[C@H]1/C=C/C(=O)OCC", "note": "[Example 6, ((2S,3S)-3,6-Dihydro-6-oxo-(2E-3-oxo-3-ethoxyprop-1-enyl-2H-pyran-3-yl))-(2E,4E)-4,6-dimethyldodecadienoate]", "values": [
      {"measurement": "IC50", "value": 6, "unit": "µM"}
    ]},
    {"smiles": "CCCCCC[C@H](C)/C=C(C)/C=C/C(=O)O[C@H]1C=CC(=O)O[C@H]1/C=C/C(=O)OCCC", "note": "[Example 6a, ((2S,3S)-3,6-Dihydro-6-oxo-(2E-3-oxo-3-propoxyprop-1-enyl)-2H-pyran-3-yl)-(2E,4E)-4,6-dimethyldodecadienoate]", "values": [
      {"measurement": "IC50", "value": 1.4, "unit": "µM"}
    ]},
    {"smiles": "CCCCCC[C@H](C)/C=C(C)/C=C/C(=O)O[C@H]1C=CC(=O)O[C@H]1/C=C/C(=O)OCCCC", "note": "[Example 6b, ((2S,3S)-3,6-Dihydro-6-oxo-(2E-3-oxo-3-butoxyprop-1-enyl)-2H-pyran-3-yl)-(2E,4E)-4,6-dimethyldodecadienoate]", "values": [
      {"measurement": "IC50", "value": 1.4, "unit": "µM"}
    ]},
    {"smiles": "CCCCCC[C@H](C)/C=C(C)/C=C/C(=O)O[C@H]1C=CC(=O)O[C@H]1/C=C/C(=O)NCc1ccccc1", "note": "[Example 6c, ((2S,3S)-3,6-Dihydro-6-oxo-(2E-3-oxo-3-benzylaminoprop-1-enyl)-2H-pyran-3-yl)-(2E,4E)-4,6-dimethyldodecadienoate]", "values": [
      {"measurement": "IC50", "value": "> 9", "unit": "µM"}
    ]}
  ]
}
